Data taken from patent US7943583B2, “2-O-(β-D-glucopyranosyl) ascorbic acid, process for its production, and foods cosmetics containing compositions comprising it” (Suntory Holdings Limited, priority 2001, dated 2011).
Where two headings read alike, the source gives them in different places.

Columns and labels:
[1] = rats; cited from earlier work
[2] = test system: human skin epidermal keratinocytes (HaCaT); experiment: Protecting effect against cell death of HaCaT induced by UVB irradiation (WST-1 viable cell count); format: cell-based; conditions: compared to ascorbic acid or 2-O-(α-D-glucopyranosyl)ascorbic acid at the same concentration; added at 20-100 μM 2 h before UVB 35 mJ/cm^2
Protocol: The human skin epidermal keratinocyte line HaCaT (a cell line provided by Professor Fusenig of Heidelberg University) was plated on a 24-well plate at 10,000 cells/well with Dulbecco's modified Eagle medium (DMEM) containing 10% fetal bovine serum (FBS) and after 18 hours, the cells were irradiated with UVB (maximum wavelength: 312 nm) at 35 millijoules/square centimeter (mJ/cm^2). Two hours before irradiation, 2-O-(β-D-glucopyranosyl)ascorbic acid was added at 20-100 μM and removed with rinsing just before irradiation. The irradiation was performed in PBS in the absence of chemical agents, after which culturing was continued in DMEM containing 10% FBS, and the viable cell count was determined 24 hours after irradiation by measuring the mitochondrial dehydrogenase activity using 2-(4-iodophenyl)-3-(4-nitrophenyl)-5-(2,4-disulfophenyl)-2H-tetrazolium monosodium salt (WST-1). For comparison, 2-O-(α-D-glucopyranosyl)ascorbic acid and ascorbic acid were examined in a similar manner, and the results are also shown in FIG. 5.

[3] = test system: human skin epidermal keratinocytes (HaCaT); experiment: Intracellular ascorbic acid concentration in human skin epidermal keratinocytes (HPLC); format: cell-based; conditions: 100 μM, 3-24 hours after addition, compared with 2-O-(α-D-glucopyranosyl)ascorbic acid and ascorbic acid
Protocol: Human skin epidermal keratinocyte cells HaCaT were plated onto a 100 mm diameter dish at a cell count of 370,000. After 16 hours of culturing, there was added 100 μM of 2-O-(β-D-glucopyranosyl)ascorbic acid dissolved in DMEM containing 10% FBS and 40% of 24-hour serum-free HaCaT culture solution. The medium was removed 3-24 hours after the addition, rinsing was performed twice with ice-cooled PBS, and the cell sheet was treated with trypsin to obtain the separated cells. These were suspended in PBS containing 50 μM dithiothreitol (DTT) and rinsed 3 times by centrifugation. The cells received freeze-thawing twice were crushed with a Potter-type teflon homogenizer for 30 sec on the ice. The cell homogenate was centrifuged at 5° C., and supernate thus separated was stored on the ice. The supernatant was subjected to treatment with Molcut (product of Nihon Millipore Co., Ltd.; High-pressure ultrafiltration unit, nominal molecular weight limit (NMWL): 10,000, polyethersulfone membrane), and the amount of intracellular ascorbic acid was analyzed by high performance liquid chromatography (AS-8020 System by Toso Co., Ltd., column: Shodex ODSpak (4.6×150 mm, product of Showa Denko Co., Ltd.), mobile phase: 0.1 M KH2PO4—H3PO4 (pH 2.35)-0.1 mM EDTA-2 Na, flow rate: 1.5 mL/min) using a coulometric electrochemical detector (ESA Co., Bedford, Mass., 200 mV). […]

[4] = test system: normal human dermal fibroblasts (NHDF); experiment: Collagen synthesis by normal human dermal fibroblasts ([3H]proline incorporation, collagenase-digestible); format: cell-based; conditions: 100 μM, 48 hours, compared to 2-O-(α-D-glucopyranosyl)ascorbic acid or ascorbic acid
Protocol: Normal human dermal fibroblast cells (NHDF) were plated onto a 100 mm diameter dish at a cell count of 370,000. After 16 hours of culture, there was added 100 μM of 2-O-(β-D-glucopyranosyl)ascorbic acid dissolved in DMEM medium containing 10% FBS and 40% of 24-hour serum-free NHDF culture solution. After another hour, 0.12 mL (120 μCi) of L-[2,3-^3H]proline was added and culturing was continued for 48 hours. The medium was removed after culturing, and the cell sheet was rinsed 4 times with PBS. The cells were then treated with trypsin, lysed with an alkali, and then neutralized to obtain the intracellular protein. The fraction obtained by digesting this protein with Clostridium collagenase was measured in terms of radioactivity with a liquid scintillation counter using Scintisol EX-H. The intracellular protein fraction not treated with collagenase was also measured in terms of radioactivity using a liquid scintillation counter. The difference in radioactivities was calculated and recorded as the collagen synthesizing activity. For comparison, 2-O-(α-D-glucopyranosyl)ascorbic acid and ascorbic acid were examined in a similar manner, and the results are also shown in FIG. 7.

[5] = Intestinal absorption in rat: portal vein plasma concentrations after oral administration; format: in vivo
Protocol: A solution of 2-O-(β-D-glucopyranosyl)ascorbic acid in Milli-Q Ultrapure Water (Millipore Corporation) (100 mg/4 mL) was orally administered at a dose of 100 mg/kg by using a feeding tube to overnight-starved and awake 10-week-old male Wistar rats (n=3) purchased from Nihon Charles River Co. After 0, 0.5, 2 and 4 hours, heparinized blood samples were collected from the portal vein and the plasma from each sample was separated by centrifugation (6000×g, 10 min). After addition of an equivalent of ice-cooled 10% metaphosphoric acid (containing 40 mM deferoxamine mesylate), the mixture was centrifuged (10,000×g, 10 min) to obtain protein-removed portal vein plasma, of which the unconverted 2-O-(β-D-glucopyranosyl)ascorbic acid and ascorbic acid concentrations were measured by high performance liquid chromatography (LC-10Ai System by Shimadzu Co., Ltd., Column: Inertsil ODS-3 (GL Science Co., Ltd., 3.0×150 mm, 5 μm), mobile phase: 15% MeOH-17 mM KH2PO4/H3PO4 (pH 3.5)-5 mM tetra-n-amylammonium bromide, flow rate: 0.3 mL/min, column temperature: 35° C., detection wavelength: 254 nm). The unconverted 2-O-(β-D-glucopyranosyl)ascorbic acid and the metabolite (ascorbic acid) were found present in maximum amounts 30 minutes after administration.

[6] = test system: normal human dermal fibroblast (NHDF) cells; experiment: Population doubling level (PDL) of normal human dermal fibroblasts; format: cell-based; conditions: 100 μM
Protocol: Normal human dermal fibroblast (NHDF) cells were plated onto a 100 mm diameter dish at a cell density of 370,000. After 16 hours of culture in DMEM supplied with 10% FBS, the medium was replaced by DMEM fortified with 10% FBS and supplied with 40% of a domestic-conditioned medium containing 100 μM of 2-O-(β-D-glucopyranosyl)ascorbic acid. The cultivation was continued for 46-188 hours until cells reached a near confluent state. The domestic-conditioned medium was prepared by separately culturing NHDF cells to the state of near confluency, which was further cultivated in a serum-free medium for 24 hours, and collecting the culture supernatant, which was stored in a refrigerator and used within 3 days. In connection with the above 46-188 hours of cultivation, the medium was changed every 3 days with fresh DMEM fortified with 10% FBS and supplied with 40% of the domestic-conditioned medium containing 100 μM of 2-O-(β-D-glucopyranosyl)ascorbic acid. When medium change was made, the cell number in the old culture medium was counted and used in the PDL assessment. The number of cells adhering onto the plate was counted by Coulter counter. PDL value at the start of culture was taken as 0, and PDL values thereafter were calculated by the equation: PDL=log2(recovered cell number/seeded cell number). […]

NHDF cells = experiment: Reduction speed of telomere lengths (TRF Southern blot) in NHDF cells; format: cell-based, human
Protocol: The TRFs were separated by electrophoresis and the length of the telomere DNA was quantified with a labeled probe specifically binding to telomere. Details of the method used in the study is described in Life Sciences, Vol. 63, No. 11, 935-948 (1998).
The fibroblast cells (NHDF) from human skin epidermis were dispersed by treatment with trypsin, added into a 1.5 ml tube at 10^6/tube, centrifuged for 2 min. at 1,200 rpm at 4° C., and the supernatant was discarded. The pellet was washed two times with 1 ml RNase free PBS(−), the supernatant was removed as sufficiently as possible, and the cells were stored at −80° C. The frozen sample was restored to ambient temperature, genomic DNA was extracted by use of IsoQuick Nucleic Acid Extraction Kit (ORCA Research Inc.). The extracted DNA was dissolved in 10 mM Tris-HCl, 1 mM EDTA, pH8.0 to be stored at 4° C. The DNA content was determined by the fluorescent reader (Cytofluor 2350, Millipore Corporation) with the DNA binding reagent Hoechist 33258, and TRF was prepared by restricted digestion with HinfI treatment. The restricted digestion was carried out as follows. There were added into a 1.5 ml tube, 2 μl of 10× H buffer (TaKaRa, Kyoto), the solution of extracted genomic DNA (2 μg), sterilized water to make up 19 μl, and finally 1 μl of HinfI (6 U/μl, TaKaRa, Kyoto). […]

Row | SMILES | unconverted form in the blood upon oral ingestion [1] | effect of preventing cell death of HaCaT induced by UVB irradiation [2] | intracellular ascorbic acid concentration [3] | collagen synthesis activity [4] | time of maximum amount of unconverted 2-O-(β-D-glucopyranosyl)ascorbic acid in portal vein plasma ([5]; Wistar rats, oral 100 mg/kg) | unconverted form in the blood upon oral ingestion ([5]; rats, oral) | PDL of NHDF greater than in the absence of ascorbic acid derivative (PDL 20.1) [6] | average reduction speed of telomere length (NHDF cells; 225 bp/PDL in the absence of any ascorbic acid derivative) | shortening of the speed of the telomere length to reduce to the critical length (NHDF cells; versus no ascorbic acid derivative)
1 | O=C1O[C@H]([C@@H](O)CO)C(O)=C1O[C@H]1O[C@H](CO)[C@@H](O)[C@H](O)[C@H]1O [2-O-(α-D-glucopyranosyl)ascorbic acid] | no detection of the unconverted form in the blood | – | – | – | – | – | – | – | –
2 | O=C1O[C@H]([C@@H](O)CO)C(O)=C1O[C@@H]1O[C@H](CO)[C@@H](O)[C@H](O)[C@H]1O [2-O-(β-D-glucopyranosyl)ascorbic acid] | – | stronger effect of preventing cell death | maintained at a higher concentration for the longest time | increased activity | 30 min | detected in the blood | 2.62 times | 94 bp/PDL | approximately 42%
